The text below walks through data of US7528138B2, “Pyrazolo[1,5-a]pyrimidines useful as inhibitors of protein kinases” (Vertex Pharmaceuticals Incorporated, priority 2004, dated 2009).

One assay deals with T1, Aurora-2 (Homo sapiens, UniProt O14965).
T1 sequence (O14965 1-403): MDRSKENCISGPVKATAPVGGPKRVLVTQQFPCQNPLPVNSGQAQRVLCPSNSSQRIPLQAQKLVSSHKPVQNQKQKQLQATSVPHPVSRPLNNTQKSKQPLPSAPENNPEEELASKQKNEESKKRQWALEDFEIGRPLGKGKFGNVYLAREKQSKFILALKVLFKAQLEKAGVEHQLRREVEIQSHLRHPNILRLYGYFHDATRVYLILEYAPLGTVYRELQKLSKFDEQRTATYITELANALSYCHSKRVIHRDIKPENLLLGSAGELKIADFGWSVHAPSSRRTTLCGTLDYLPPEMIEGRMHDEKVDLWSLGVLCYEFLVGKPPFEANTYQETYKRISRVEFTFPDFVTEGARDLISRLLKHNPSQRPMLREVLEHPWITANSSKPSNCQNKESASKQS
As to the kind of experiment: Aurora-A (Aurora-2) Inhibition Assay, coupled enzyme assay. The assay is classed as biochemical. The note with it: enzyme inhibition data (Ki), Table 11; read-out: AurA Ki. In outline:
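Coupled pyruvate kinase/lactate dehydrogenase assay following NADH, pH 7.5 Hepes, 40 nM Aurora-2, 400 μM ATP and 570 μM Kemptide at 30 °C. Compound (top final typically 7.5 μM) preincubated 10 min; initial rates over 10 min; IC50 and Ki by non-linear regression.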

A further assay concerns the target T2, Itk (Homo sapiens, UniProt Q08881).
T2 sequence (Q08881 1-620): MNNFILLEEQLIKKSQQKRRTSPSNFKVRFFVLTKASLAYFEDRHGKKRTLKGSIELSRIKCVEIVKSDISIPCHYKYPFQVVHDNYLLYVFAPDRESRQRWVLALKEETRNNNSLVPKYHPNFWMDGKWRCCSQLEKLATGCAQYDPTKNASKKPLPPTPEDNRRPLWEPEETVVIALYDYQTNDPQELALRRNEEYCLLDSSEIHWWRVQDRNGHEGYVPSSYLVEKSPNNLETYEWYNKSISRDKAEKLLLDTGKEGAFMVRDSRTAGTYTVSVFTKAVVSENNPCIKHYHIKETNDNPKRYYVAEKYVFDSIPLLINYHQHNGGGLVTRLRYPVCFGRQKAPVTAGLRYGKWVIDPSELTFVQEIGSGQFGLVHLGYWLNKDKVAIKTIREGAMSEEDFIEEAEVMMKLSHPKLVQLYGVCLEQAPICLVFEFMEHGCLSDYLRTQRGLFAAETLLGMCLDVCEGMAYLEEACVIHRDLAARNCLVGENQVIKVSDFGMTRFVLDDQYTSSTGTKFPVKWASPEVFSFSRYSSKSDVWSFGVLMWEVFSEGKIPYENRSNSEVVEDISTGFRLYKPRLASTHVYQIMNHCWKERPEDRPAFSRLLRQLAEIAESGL
As to the kind of experiment: ITK Inhibition Assay (Radiometric), radioactive-phosphate incorporation. The note with it: enzyme inhibition data (Ki), Table 11; radiometric or UV assay not stated. The assay is classed as biochemical. In outline: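 Radiometric 33P incorporation into SAM68 peptide (D332-443) with filter capture and scintillation counting; 10 min pre-incubation then 10 min reaction at 25° C. IC50 format: 30 nM Itk, 15 μM ATP, 2 μM peptide, HEPES pH 7.5. Ki(app) format: 50 nM Itk, 7.5 μM ATP, 3 μM peptide, MOPS pH 7.0.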

Turning to `NC1NN2C=C(c3cccc(CN4CCCNCC4)c3)C=NC2=C1c1ccccn1` (stereo not shown) [Compound V-228], the figures for the Ki on Aurora-2 and on Itk were 500 to 5000 nM and less than 500 nM, respectively.
As for `NC1CCN(Cc2cccc(C3=CN4NC(N)C(c5ccccn5)=C4N=C3)c2)CC1` (stereo not shown) [Compound V-229], the inhibition constant Ki on Aurora-2 is 500 to 5000 nM; at Itk it was less than 500 nM.
With `CNCCCN(C)Cc1ccc(-c2cnc3c(-c4ccccn4)c(N)nn3c2)cc1` [Compound V-230], the Ki at Aurora-2 and on Itk was less than 500 nM throughout.
`Nc1nn2cc(-c3ccc(CN4CC[C@@H](N)C4)cc3)cnc2c1-c1ccccn1` [Compound V-231]: the inhibition constant (Ki) at Aurora-2 and at Itk was less than 500 nM in each case.
Take `Nc1nn2cc(-c3ccc(CNC4CCNCC4)cc3)cnc2c1-c1ccccn1` [Compound V-232]: the inhibition constant Ki at Aurora-2 is 500 to 5000 nM; at Itk, less than 500 nM.
The matching figures for `Nc1nn2cc(-c3ccc(CN4CC[C@H](N)C4)cc3)cnc2c1-c1ccccn1` [Compound V-233]: less than 500 nM and less than 500 nM.
The matching figures for `Nc1nn2cc(-c3ccc(CN4CCC(N)CC4)cc3)cnc2c1-c1ccccn1` [Compound V-234]: less than 500 nM and less than 500 nM.
For the compound `CNCc1ccc(-c2cnc3c(-c4ccccn4)c(N)nn3c2)cc1` [Compound V-236], the Ki on Aurora-2 and at Itk was less than 500 nM in each case.
In the case of `CC(C)(O)C#Cc1cnc2c(-c3ccccn3)c(N)nn2c1` [Compound V-237], the inhibitory constant (Ki) was 500 to 5000 nM at Aurora-2 and less than 500 nM at Itk.
The matching figures for `Nc1nn2cc(C#CCO)cnc2c1-c1ccccn1` [Compound V-238]: 500 to 5000 nM and 500 to 5000 nM.
The matching figures for `Nc1nn2cc(-c3ccncc3)cnc2c1-c1cc(Nc2ccccc2)ncn1` [Compound V-241]: less than 500 nM and less than 500 nM.
The matching figures for `COc1ccccc1Nc1cc(-c2c(N)nn3cc(-c4ccncc4)cnc23)ncn1` [Compound V-242]: less than 500 nM and less than 500 nM.
For the compound `CC(C)CN(C)c1cc(-c2c(N)nn3cc(-c4ccncc4)cnc23)ncn1` [Compound V-243], the Ki at Aurora-2 and at Itk was less than 500 nM in each case.
Take `CCCN(CC)c1cc(-c2c(N)nn3cc(-c4ccncc4)cnc23)ncn1` [Compound V-244]: the inhibition constant (Ki) on Aurora-2 and on Itk was less than 500 nM in each case.
